Data from the NIST ThermoML archive (doi:10.1016/j.jct.2004.07.024).

Test: xn = mol fraction of the nth substance listed
Conditions: 101.33 kPa, Liquid

C[S+](C)[O-] [dimethyl sulfoxide] + c1ccccc1
Conditions	mass density [kg/m3]
293.15 K, x2 = 0.0589	1084.47
293.15 K, x2 = 0.1255	1067.5
293.15 K, x2 = 0.1852	1052.58
293.15 K, x2 = 0.2561	1035.37
293.15 K, x2 = 0.2934	1026.52
293.15 K, x2 = 0.3345	1016.91
293.15 K, x2 = 0.3782	1006.87
293.15 K, x2 = 0.4312	994.89
293.15 K, x2 = 0.4757	985.02
293.15 K, x2 = 0.5963	958.97
293.15 K, x2 = 0.6875	939.81
293.15 K, x2 = 0.7369	929.61
293.15 K, x2 = 0.8637	903.71
293.15 K, x2 = 0.9562	885.02
303.15 K, x2 = 0.0596	1075.16
303.15 K, x2 = 0.1345	1056.18
303.15 K, x2 = 0.194	1041.49
303.15 K, x2 = 0.2473	1028.63
303.15 K, x2 = 0.2893	1018.74
303.15 K, x2 = 0.3465	1005.44
303.15 K, x2 = 0.4213	988.61
303.15 K, x2 = 0.4835	974.94
303.15 K, x2 = 0.5431	962.12
303.15 K, x2 = 0.5968	950.76
303.15 K, x2 = 0.6763	934.26
303.15 K, x2 = 0.7781	913.49
303.15 K, x2 = 0.8511	898.8
303.15 K, x2 = 0.9542	878.27
313.15 K, x2 = 0.059	1064.91
313.15 K, x2 = 0.1267	1047.76
313.15 K, x2 = 0.1873	1032.78
313.15 K, x2 = 0.2676	1013.53
313.15 K, x2 = 0.2933	1007.51
313.15 K, x2 = 0.3378	997.22
313.15 K, x2 = 0.4321	976.04
313.15 K, x2 = 0.4752	966.67
313.15 K, x2 = 0.5514	950.39
313.15 K, x2 = 0.6011	939.97
313.15 K, x2 = 0.6837	923
313.15 K, x2 = 0.7653	906.53
313.15 K, x2 = 0.8681	886.1
313.15 K, x2 = 0.9499	870
323.15 K, x2 = 0.0602	1054.55
323.15 K, x2 = 0.1257	1038.36
323.15 K, x2 = 0.1833	1024.43
323.15 K, x2 = 0.2512	1008.48
323.15 K, x2 = 0.3294	990.67
323.15 K, x2 = 0.3931	976.6
323.15 K, x2 = 0.4615	961.88
323.15 K, x2 = 0.5232	948.95
323.15 K, x2 = 0.5972	933.77
323.15 K, x2 = 0.6502	923.09
323.15 K, x2 = 0.7149	910.25
323.15 K, x2 = 0.7896	895.64
323.15 K, x2 = 0.8788	878.39
323.15 K, x2 = 0.9556	863.66
333.15 K, x2 = 0.0593	1044.75
333.15 K, x2 = 0.1279	1028.18
333.15 K, x2 = 0.1801	1015.83
333.15 K, x2 = 0.2566	998.31
333.15 K, x2 = 0.3263	982.84
333.15 K, x2 = 0.3862	969.9
333.15 K, x2 = 0.4523	955.99
333.15 K, x2 = 0.5213	941.87
333.15 K, x2 = 0.5869	928.72
333.15 K, x2 = 0.6532	915.7
333.15 K, x2 = 0.7256	901.71
333.15 K, x2 = 0.7959	888.33
333.15 K, x2 = 0.8864	871.29
333.15 K, x2 = 0.9116	866.58
343.15 K, x2 = 0.0593	1034.67
343.15 K, x2 = 0.1356	1016.68
343.15 K, x2 = 0.2182	997.86
343.15 K, x2 = 0.2636	987.78
343.15 K, x2 = 0.3296	973.51
343.15 K, x2 = 0.3938	960.01
343.15 K, x2 = 0.4686	944.74
343.15 K, x2 = 0.5213	934.26
343.15 K, x2 = 0.5769	923.38
343.15 K, x2 = 0.6623	907.03
343.15 K, x2 = 0.7385	892.7
343.15 K, x2 = 0.7801	884.99
343.15 K, x2 = 0.8569	870.86
343.15 K, x2 = 0.9503	853.81
353.15 K, x2 = 0.058	1024.84
353.15 K, x2 = 0.1585	1001.73
353.15 K, x2 = 0.2335	985.09
353.15 K, x2 = 0.3065	969.42
353.15 K, x2 = 0.3765	954.93
353.15 K, x2 = 0.4187	946.35
353.15 K, x2 = 0.4682	936.49
353.15 K, x2 = 0.5242	925.57
353.15 K, x2 = 0.5912	912.8
353.15 K, x2 = 0.6404	903.56
353.15 K, x2 = 0.7556	882.4
353.15 K, x2 = 0.8024	873.93
353.15 K, x2 = 0.8701	861.79
353.15 K, x2 = 0.9284	851.4

CCc1ccccc1 [ethylbenzene] + C[S+](C)[O-]
Conditions	mass density [kg/m3]
293.15 K, x1 = 0.0626	1076.31
293.15 K, x1 = 0.1596	1043.57
293.15 K, x1 = 0.2203	1025.03
293.15 K, x1 = 0.2983	1003.06
293.15 K, x1 = 0.3698	984.55
293.15 K, x1 = 0.4623	962.58
293.15 K, x1 = 0.5186	950.18
293.15 K, x1 = 0.5712	939.18
293.15 K, x1 = 0.6285	927.89
293.15 K, x1 = 0.6802	918.18
293.15 K, x1 = 0.7525	905.36
293.15 K, x1 = 0.8102	895.69
293.15 K, x1 = 0.8723	885.81
293.15 K, x1 = 0.9456	874.79
303.15 K, x1 = 0.0669	1065.53
303.15 K, x1 = 0.1456	1038.79
303.15 K, x1 = 0.2569	1005.2
303.15 K, x1 = 0.3203	988
303.15 K, x1 = 0.3956	969
303.15 K, x1 = 0.4569	954.63
303.15 K, x1 = 0.5132	942.23
303.15 K, x1 = 0.5856	927.28
303.15 K, x1 = 0.6277	919.04
303.15 K, x1 = 0.7065	904.51
303.15 K, x1 = 0.7856	890.93
303.15 K, x1 = 0.8359	882.8
303.15 K, x1 = 0.8856	875.1
303.15 K, x1 = 0.9503	865.51
313.15 K, x1 = 0.0624	1056.77
313.15 K, x1 = 0.1459	1028.39
313.15 K, x1 = 0.2201	1005.62
313.15 K, x1 = 0.2692	991.65
313.15 K, x1 = 0.3314	975.03
313.15 K, x1 = 0.3963	958.87
313.15 K, x1 = 0.4456	947.35
313.15 K, x1 = 0.4965	936.07
313.15 K, x1 = 0.5216	930.71
313.15 K, x1 = 0.5986	915.08
313.15 K, x1 = 0.6853	898.86
313.15 K, x1 = 0.7526	887.13
313.15 K, x1 = 0.8418	872.68
313.15 K, x1 = 0.9258	860.05
323.15 K, x1 = 0.0625	1046.39
323.15 K, x1 = 0.1786	1007.95
323.15 K, x1 = 0.2469	987.84
323.15 K, x1 = 0.3095	970.78
323.15 K, x1 = 0.3698	955.5
323.15 K, x1 = 0.4152	944.61
323.15 K, x1 = 0.4723	931.67
323.15 K, x1 = 0.5362	918.08
323.15 K, x1 = 0.6048	904.45
323.15 K, x1 = 0.6604	894.04
323.15 K, x1 = 0.7301	881.76
323.15 K, x1 = 0.7992	870.36
323.15 K, x1 = 0.8683	859.65
323.15 K, x1 = 0.9226	851.65
333.15 K, x1 = 0.066	1034.83
333.15 K, x1 = 0.1159	1017.74
333.15 K, x1 = 0.1896	994.42
333.15 K, x1 = 0.2156	986.74
333.15 K, x1 = 0.2765	969.61
333.15 K, x1 = 0.3286	955.9
333.15 K, x1 = 0.3964	939.26
333.15 K, x1 = 0.4598	924.75
333.15 K, x1 = 0.5349	908.81
333.15 K, x1 = 0.6126	893.53
333.15 K, x1 = 0.6861	880.14
333.15 K, x1 = 0.7698	865.99
333.15 K, x1 = 0.8459	854.04
333.15 K, x1 = 0.9025	845.66
343.15 K, x1 = 0.0599	1026.68
343.15 K, x1 = 0.1569	994.32
343.15 K, x1 = 0.2363	970.71
343.15 K, x1 = 0.3001	953.33
343.15 K, x1 = 0.3895	931.07
343.15 K, x1 = 0.4519	916.81
343.15 K, x1 = 0.5163	903.06
343.15 K, x1 = 0.5698	892.31
343.15 K, x1 = 0.6389	879.27
343.15 K, x1 = 0.6895	870.27
343.15 K, x1 = 0.7558	859.13
343.15 K, x1 = 0.8106	850.44
343.15 K, x1 = 0.8895	838.64
343.15 K, x1 = 0.9502	830.09
353.15 K, x1 = 0.059	1016.69
353.15 K, x1 = 0.1555	984.6
353.15 K, x1 = 0.2236	964.29
353.15 K, x1 = 0.2856	947.23
353.15 K, x1 = 0.3384	933.66
353.15 K, x1 = 0.4089	916.78
353.15 K, x1 = 0.4625	904.82
353.15 K, x1 = 0.5185	893.03
353.15 K, x1 = 0.5665	883.47
353.15 K, x1 = 0.6255	872.34
353.15 K, x1 = 0.6706	864.28
353.15 K, x1 = 0.7556	850
353.15 K, x1 = 0.8326	838.04
353.15 K, x1 = 0.9129	826.41
